From PubChem BioAssay (NCI)
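Each compound was tested at five concentrations against cells in 96-well plates for 48 hours. Abbreviation: GI50, concentration required for 50% inhibition of growth. At the TGI there is no net growth.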

Key:
Assay in all cases: growth of human tumour cells (NCI), 48 h
UACC-257 melanoma = test system: UACC-257 melanoma
UO-31 renal = test system: UO-31 renal
K-562 leukemia = test system: K-562 leukemia
SF-295 CNS = test system: SF-295 CNS
SK-MEL-2 melanoma = test system: SK-MEL-2 melanoma
M14 melanoma = test system: M14 melanoma

Row | SMILES | TGI (UACC-257 melanoma) [µM] | TGI (UO-31 renal) [µM] | TGI (K-562 leukemia) [µM] | TGI (SF-295 CNS) [µM] | TGI (SK-MEL-2 melanoma) [µM] | TGI (M14 melanoma) [µM] | GI50 (UACC-257 melanoma) [µM] | GI50 (UO-31 renal) [µM] | GI50 (K-562 leukemia) [µM] | GI50 (SF-295 CNS) [µM] | GI50 (SK-MEL-2 melanoma) [µM] | GI50 (M14 melanoma) [µM]
1 | O=C1CCC2CCOc3ccc(O)c1c32 (stereo not given) | > 100 | > 100 | > 100 | > 100 | > 100 | > 100 |  |  |  |  |  | 
2 | N#Cc1nc(Nc2ccc([N+](=O)[O-])cc2)sc1N | 63.7 | > 59.7 | > 100 | > 100 | 53.2 | 66.8 |  |  |  |  |  | 
3 | Cc1ccc([Se][Se]c2ccc(C)cc2)cc1 | 68.8 | 49.7 | 28 | 61.6 | > 100 |  |  |  |  |  |  | 
4 | C1C[OH+]CC[OH+]CC[OH+]CC[OH+]CC[OH+]CC[OH+]1.[Cl-].[Ta+5] | > 100 | 30.3 | > 100 | > 100 | > 100 | > 100 | > 100 | 5.02 | > 100 | > 100 | > 100 | > 100
5 | CC1=C(c2cc(C(=O)Nc3cccc(C(F)(F)F)c3)nc(NC#N)n2)Sc2ccccc2N1 | > 100 | > 100 | > 100 | > 100 | > 100 | > 100 |  |  |  |  |  | 
6 | O=C(/C=C/c1ccc(Cl)cc1)c1ccncc1 | > 100 | > 100 | > 100 | > 100 | > 100 | > 100 |  |  |  |  |  | 
7 | O=C1CCC(=O)C12CCc1cccc(O)c12 |  | > 100 | > 100 | > 100 |  | > 100 |  |  |  |  |  | 
8 | Cc1nn(C)c(=O)c2nn(-c3ccccc3)c(C)c12 | > 100 | > 100 | > 100 | > 100 | > 100 | > 100 |  |  |  |  |  | 
9 | O=C1CC(c2c[nH]c3ccccc23)C(=O)N1c1ccccc1 (stereo not given) | > 100 | > 100 | > 100 | > 100 | > 100 | > 100 |  |  |  |  |  | 
10 | O=C(O/N=C1/CCCC/C1=C\c1ccccc1)c1ccc(Cl)cc1 | > 100 | > 100 | > 100 | > 100 | > 100 | > 100 |  |  |  |  |  | 
11 | C=CCNC(=S)OCCCCCCCCCC | 34.6 | 24.8 | 29.6 | 34.5 | 24.8 | 32.7 |  |  |  |  |  | 
12 | COc1cc(/C=C2\CCc3ccccc3C2=O)cc(OC)c1OC | 27.4 | 30.7 | > 100 | 28.6 | 29.8 | 30 |  |  |  |  |  | 
13 | CCc1cccc(C(C)CC)c1NC(=O)CC1C(=O)Nc2ccccc2S1=O (stereo not given) | > 100 | > 100 | > 100 | > 100 | > 100 | 55.8 |  |  |  |  |  | 
14 | COC(=O)C(=O)C(C#N)c1ccc(Cl)c(Cl)c1 (stereo not given) | > 100 | > 100 | > 100 | > 100 | > 100 | > 100 |  |  |  |  |  | 
15 | Cc1cccc(N2C(=O)C(=O)C(c3nc4ccccc4s3)C(=O)C2=O)c1C | > 100 | > 100 | > 100 | > 100 | > 100 | > 100 |  |  |  |  |  | 
16 | COc1ccc(CCC2NCCc3cc(OC)c(OC)cc32)cc1 (stereo not given) | > 100 | > 100 | > 100 | > 100 | > 100 | > 100 |  |  |  |  |  | 
17 | Cc1ccc(N(C(=O)CC(=O)N2N=C(c3ccccc3)C(N=Nc3ccc([N+](=O)[O-])cc3)C2=O)C(=O)c2ccc(Cl)cc2)cc1 (stereo not given) | > 72.7 | > 100 | > 71.3 | 25.6 | > 62.4 | 18.4 |  |  |  |  |  | 
18 | CC1=N/C(=C\c2cccc3ccccc23)C(=O)O1 | > 100 | > 100 | > 100 | > 100 | > 100 | > 100 |  |  |  |  |  | 
19 | Cn1cnc([N+](=O)[O-])c1Sc1nnc(C(F)(F)F)n1C | 32.9 | > 100 | 63.6 | > 100 | 48.5 | 37.2 |  |  |  |  |  | 
20 | CCCCCCCCCC(=O)N[C@H]1CCc2cc(OC)c(OC)c(OC)c2-c2ccc(SC)c(=O)cc21 | 13.9 | 44.2 | 29.5 |  |  |  |  | 0.0168 |  |  |  | 
21 | CCOC(=O)C1(C(=O)OCC)CC=C(C)CC12C(=O)Nc1ccccc12 (stereo not given) |  |  | > 100 | > 100 | > 100 | > 100 |  |  |  |  |  | 
22 | COc1ccc(S(=O)(=O)N/N=C(\C)CN2C(=O)c3ccccc3C2=O)cc1 | > 100 | > 100 | > 100 | > 100 | > 100 | > 100 |  |  |  |  |  | 
23 | CN(Cc1ccccc1)C1(N(C)Cc2ccccc2)CC1 | > 100 | > 100 | > 100 | > 100 | > 100 | > 100 |  |  |  |  |  | 
24 | CN(C)CCNC(=O)c1cccc2c1nc(-c1ccccn1)c1ccccc12 | 30.4 | 22.7 | 48.8 | 41.1 | 34 | 32.2 |  |  |  |  |  | 
25 | Cc1nn(C)c(=S)n(C)c1=O | 11.2 | 0.753 | > 100 | > 100 | 34.8 | > 100 |  |  |  |  |  | 
26 | CC(C)(C)C(=O)OCC(COC(=O)C(C)(C)C)[N+](=O)[O-] | > 100 | > 100 | > 100 | > 100 | > 100 | > 100 |  |  |  |  |  | 
